Results as given in patent US9102925B2, “Compositions and methods for treating or preventing conditions and diseases associated with Mannheimia haemolytica” (Washington State University, priority 2009, dated 2015).
“And” between values parts separate entries of the source, which are not always exact repeats. Equal entries are not always repeated. “Also recorded” adds a separate entry of the source. Peptide text beside a SMILES is read from it.

What was measured:
[1] = target: T1, M. haemolytica leukotoxin (Lkt) (Mannheimia haemolytica, UniProt P16535); assay: cell-based
[2] = system: M. haemolytica serotype-1 strain SH789; assay: Calf challenge model: endobronchial inoculation of M. haemolytica with or without peptide; format: in vivo, Mannheimia haemolytica; conditions: for Gross pneumonic lesions as % of total lung volume, Lesion (%), individual calf: 2 mg peptide with 5×10^9 CFU M. haemolytica endobronchially, necropsy 90 hours post-inoculation; for Number of M. haemolytica isolated from the lungs at necropsy, individual calf / Number of M. haemolytica isolated from the lungs at necropsy, Mean / Gross pneumonic lesions as % of total lung volume, Mean (%): 2 mg peptide with 5×10^9 CFU endobronchially; for Duration of nasal discharge post-inoculation: study period 90 hours; for Number of M. haemolytica isolated from the lungs at necropsy, Mean: group mean; for Number of M. haemolytica isolated from the lungs at necropsy, Mean / Gross pneumonic lesions as % of total lung volume, Mean (%): 4 calves; for Gross pneumonic lesions as % of total lung volume, Mean (%): group mean±SEM, 90 hours
Method: M. Haemolytica serotype-1 strain SH789, isolated from the pneumonic lung of a calf, was streaked on blood agar plate and incubated overnight at 37° C. The following day few colonies were transferred to 3 ml of pre-warmed brain heart infusion (BHI) broth and incubated for 3 hours at 37° C. with constant shaking (200 cycles/minute). Two BHI agar plates were ‘lawned’ with this bacterial culture using sterile cotton swabs and incubated overnight at 37° C. The following day (day of inoculation) M. haemolytica was harvested from the BHI agar plates and transferred to 40 ml of pre-warmed BHI broth in a 250 ml flask, and incubated for 2.5 hours at 37° C. with constant shaking to obtain cultures in the logarithmic phase of growth. The culture was centrifuged at 6000×g at 20° C. for 30 minutes and the pellet was washed once with RPMI 1640 (without phenol red) medium. The bacterial pellet was re-suspended in 4 ml of RPMI 1640 (without phenol red), and 1 ml of this culture was added to 50 ml of pre-warmed RPMI 1640 (without phenol red) containing L-glutamine (1 ml L-glutamine/100 ml RPMI) in a 250 ml flask. Bacteria were incubated for 3 hours at 37° C. with constant shaking to obtain logarithmic phase culture and the optical density (OD) was measured. The culture was appropriately diluted to obtain a concentration of 1×10^9 CFU of M. haemolytica per ml. Five ml of this preparation per calf was used for endobronchial challenge. The bacterial concentration was confirmed the following day by culturing diluted aliquots of the inoculum on BHI agar and counting the resulting colonies.
The peptide (P17) containing amino acids 5-17 of bovine CD18 (NH2-RPQLLLLAGLLAL-OH) (SEQ ID NO.:71), and the peptide (PSC) containing the same amino acids as peptide P17 but in a randomly scrambled sequence (NH2-LRALLPLQLLAGL-OH) (SEQ ID NO.:72), were synthesized at Neopeptide (Cambridge, Mass.). Both peptides were re-suspended in dimethysulfoxide (ATCC) at a concentration of 20 mg/ml and stored at −20° C. until used. Based on the results of in vitro neutralization of Lkt by peptide P17, each calf was endobronchially inoculated with 2 mg of peptide in 5 ml of RPMI mixed with 5×10^9 CFU of M. haemolytica in 5 ml of RPMI.
All experimental protocols were approved by the Institutional Animal Care and Use Committee (IACUC) at Washington State University before the onset of the study. Twelve Holstein calves were randomly assigned to three experimental groups. Calves were matched for age when assigned into three groups. Prior to inoculation, serum samples and pharyngeal and nasal swabs were collected from all the calves. Group I calves received endobronchial injections of 5×10^9 CFU of M. haemolytica in 10 ml of RPMI. Group II calves received 5×10^9 CFU of M. haemolytica and 2 mg of peptide PSC in 10 ml of RPMI. Group III calves received 5×10^9 CFU of M. haemolytica and 2 mg of peptide P17 in 10 ml of RPMI. The inoculum was flushed down with an additional 10 ml of RPMI in all calves. Clinical disease in each calf was scored at different time points post-inoculation.
Physical examination of each calf was performed immediately prior to experimental infection and at 6, 18, 24, 42, 48, 66, 72, and 90 hours post-inoculation. Signs of clinical disease were allocated points according to the scoring system followed by Malazdrewich et al (2003; Table 3).
On necropsy lungs were removed and gross pneumonic lesion development in each lobe of lung was observed. The entire lung from each animal was sliced at 1 cm thickness and the total and pneumonic lesion areas were traced onto transparent acetate sheets. The traced portions were scanned into ImgaeJ, NIH Image (National Institute of Health; Nethesda, Md.), which was used to measure areas representing both the total serial section and the gross pneumonic lesions within it. […]

[3] = target: T1, M. haemolytica leukotoxin (Lkt)

Compound | IC50 [1] [µM] | Gross pneumonic lesions as % of total lung volume, Lesion (%), individual calf ([2]; calves) | Number of M. haemolytica isolated from the lungs at necropsy, individual calf ([2]; calves, necropsy 90 hours) | Duration of nasal discharge post-inoculation ([2]; calves) | Number of M. haemolytica isolated from the lungs at necropsy, Mean ([2]; necropsy 90 hours) | Gross pneumonic lesions as % of total lung volume, Mean (%) [2] [%] | Leukotoxic activity of supernatant fluids from M. haemolytica cultures incubated with peptide [3] | M. haemolytica in lungs, fold less than in Group I (bacteria only) and Group II (PSC) ([2]; calves, necropsy 90 hours, P<0.001) | Gross pneumonic lesions (percent lung volume) compared between groups ([2]; calves, necropsy 90 hours, P=0.9) | Mean clinical score compared with other groups at 24 hours post-inoculation ([2]; calves, 24 hours post-inoculation, P<0.05) | Total clinical disease scores compared with Group I and II ([2]; calves, scored 6 to 90 hours post-inoculation) | Inhibition of Lkt-induced cytolysis of bovine PMNs [1] | Inhibition of Lkt-induced cytolysis of ruminant leukocytes [1]
CSCC[C@H](N)C(=O)N[C@@H](CC(C)C)C(=O)N[C@@H](CCCNC(=N)N)C(=O)N[C@@H](CCC(N)=O)C(=O)N[C@@H](CCCNC(=N)N)C(=O)N1CCC[C@H]1C(=O)N[C@@H](CCC(N)=O)C(=O)N[C@@H](CC(C)C)C(=O)N[C@@H](CC(C)C)C(=O)N[C@@H](CC(C)C)C(=O)N[C@@H](CC(C)C)C(=O)N[C@@H](C)C(=O)NCC(=O)N[C@@H](CC(C)C)C(=O)N[C@@H](CC(C)C)C(=O)N[C@@H](C)C(=O)N[C@@H](CC(C)C)C(=O)N[C@@H](CCC(N)=O)C(=O)N[C@@H](CO)C(=O)N[C@H](C(=O)O)C(C)C [P1] (H-MLRQRPQLLLLAGLLALQSV-OH) | 11.6 | – | – | – | – | – | – | – | – | – | – | – | –
CC(C)C[C@H](NC(=O)CNC(=O)[C@H](C)NC(=O)[C@H](CC(C)C)NC(=O)[C@H](CC(C)C)NC(=O)[C@H](CC(C)C)NC(=O)[C@H](CC(C)C)NC(=O)[C@H](CCC(N)=O)NC(=O)[C@@H]1CCCN1C(=O)[C@@H](N)CCCNC(=N)N)C(=O)N[C@@H](CC(C)C)C(=O)N[C@@H](C)C(=O)N[C@@H](CC(C)C)C(=O)N[C@@H](CCC(N)=O)C(=O)N[C@@H](CO)C(=O)N[C@H](C(=O)N[C@@H](CC(C)C)C(=O)N[C@@H](CO)C(=O)N[C@@H](CCC(N)=O)C(=O)N[C@@H](CCC(=O)O)C(=O)O)C(C)C [P5] (H-RPQLLLLAGLLALQSVLSQE-OH) | 5.55 | – | – | – | – | – | – | – | – | – | – | – | –
NH2-LRALLPLQLLAGL-OH (H-LRALLPLQLLAGL-OH) [PSC, reference compound] | – | 4.07% and 10.70% and 9.01% and 24.57% | 1.89 × 10^7 CFU per gram of lung tissue and 6.73 × 10^5 CFU per gram of lung tissue and 6.50 × 10^7 CFU per gram of lung tissue and 1.87 × 10^7 CFU per gram of lung tissue | throughout the study period | 2.58 ± 1.374 × 10^7 CFU per gram of lung tissue | 12.09 ± 4.39 | had significant leukotoxic activity | – | – | – | – | – | –
NH2-RPQLLLLAGLLAL-OH (H-RPQLLLLAGLLAL-OH; listed as Bos taurus) [P17] | – | 15.67% and 2.7% and 13.22% and 8.51% | 5.29 × 10^3 CFU per gram of lung tissue and 4.92 × 10^2 CFU per gram of lung tissue and 5.70 × 10^4 CFU per gram of lung tissue and 8.00 × 10^2 CFU per gram of lung tissue | up to 24 hours | 1.589 ± 1.374 × 10^4 CFU per gram of lung tissue | 10.53 ± 3.02 | did not exhibit significant leukotoxic activity | 100- to 1000 fold and 100 to 1000 fold | not statistically significant; also recorded: no less than those in calves inoculated with the control peptide PSC | statistically significantly lower | lower than those for group I and II at all time points except 48 hours | strongly inhibited | effectively inhibited
